According to PMC6356585 (Viruses, 2018):
Counter-ions that a name gives are not always drawn. Like-named read-outs stand apart in the source and are kept apart here. Residues, ends and D or L forms follow the SMILES beside them. *: point of attachment. Cbz = O=C(OCc1ccccc1)*

What was measured:
C6/36 cells = type: cell-based, Ae. albopictus
Vero cells = assay: Cell viability (CellTiter-Glo) of Vero cells; type: cell-based
ZIKV SPH = assay: Autophagy compound library screen, ZIKV SPH titer (TCID50) in C6/36 cells; type: cell-based, Zika virus; conditions: 10 µM compound, MOI 0.1, 96 h, TCID50, ± SEM, three independent trials; for activity at 10 µM: Zika virus, C6/36, read-out: ZIKV SPH Relative Titer in C6/36 Cells
[1] = 10 µM compound, 96 h, CellTiter-Glo, ± SEM, three independent trials
[2] = 10 µM compound, 40 h, CellTiter-Glo, ± SEM, three independent trials

| Structure (SMILES) | C6/36 Viability (C6/36 cells; [1]) | Vero Viability (Vero cells; 10 µM) | activity at 10 µM (ZIKV SPH) [%] | Vero Viability (Vero cells; [2]) | also measured |
| --- | --- | --- | --- | --- | --- |
| O=CC[C@@H](O)[C@H](O)[C@H](O)CO [2-Deoxyglucose] | 73 ± 1% of untreated control | 98.7 ± 0.9% of untreated control | 109 ± 61.2 | – | – |
| C[C@H]1O[C@@H](n2cnc3c(N)ncnc32)C[C@@H]1O [2′,5′-Dideoxyadenosine] | 118 ± 15% of untreated control | – | 317 ± 162 | 95.0 ± 1.5% of untreated control | – |
| Cn1cnc(N)c2ncnc1-2 [3-Methyladenine] | 120 ± 15.6% of untreated control | 90.7 ± 1.8% of untreated control | 155 ± 41 | – | – |
| CO/C1=C\C(C)=C\[C@@H](C)[C@@H](O)[C@@H](C)C/C(C)=C/C=C/[C@H](OC)[C@@H]([C@@H](C)[C@@H](O)[C@H](C)[C@@]2(O)C[C@@H](O)[C@H](C)[C@@H](C(C)C)O2)OC1=O [Bafilomycin A1] | 36 ± 6.1% of untreated control | – | 0 | 55.7 ± 9.5% of untreated control | – |
| C[C@H]1CCC/C=C/[C@@H]2C[C@H](O)C[C@H]2[C@H](O)/C=C/C(=O)O1 [Brefeldin A] | – | – | 124 ± 25 | – | C6/36 Viability (C6/36 cells; 10 µM compound, 96 h, CellTiter-Glo, ± SEM, three independent trials, 10 µM): 91 ± 8.4% of untreated control; C6/36 Viability (C6/36 cells; 10 µM compound, 96 h, CellTiter-Glo, ± SEM, three independent trials, listed as brefeldin A, 10 µM): did not alter viral titers or cell viability; Vero Viability (Vero cells; 10 µM compound, 40 h, CellTiter-Glo, ± SEM, three independent trials, 10 µM): 17.0 ± 2.1% of untreated control; Vero Viability (Vero cells; 10 µM compound, 40 h, CellTiter-Glo, ± SEM, three independent trials, listed as brefeldin A, 10 µM): toxic; ZIKV SPH Relative Titer in C6/36 Cells (ZIKV SPH): did not alter viral titers |
| Cn1c(=O)c2c(ncn2C)n(C)c1=O [Caffeine] | 83 ± 4.6% of untreated control | – | 138 ± 37.7 | 104.7 ± 8.6% of untreated control | – |
| COc1cc(CNC(=O)CCCC/C=C/C(C)C)ccc1O [Capsaicin] | 66 ± 7.2% of untreated control | – | 48.1 ± 12 | 91.7 ± 2.4% of untreated control | – |
| CCN(CC)CCCC(C)Nc1ccnc2cc(Cl)ccc12 (stereo not shown) [Chloroquine] | 81 ± 17.1% of untreated control | – | 126 ± 44.8 | 89.7 ± 4.4% of untreated control | – |
| Clc1cccc(Cl)c1N=C1NCCN1 [Clonidine·HCl] | – | 97.7 ± 2.6% of untreated control | 95.9 ± 53.4 | – | C6/36 Viability (C6/36 cells; 10 µM): 69 ± 5.4% of untreated control |
| CCCCC[C@H](O)CC(=O)CCc1ccc(O)c(OC)c1 [Compound 6-Gingerol, 6-Gingerol] | 55 ± 11% of untreated control | 100.0 ± 2.5% of untreated control | 109 ± 9.3 | – | – |
| COc1cc(/C=C/C(=O)CC(=O)/C=C/c2ccc(O)c(OC)c2)ccc1O [Curcumin] | 3 ± 0.7% of untreated control | 75.3 ± 11.3% of untreated control | 0.3 ± 0.2 | – | – |
| C[C@@H]1C[C@@H]([C@H](O)CC2CC(=O)NC(=O)C2)C(=O)[C@@H](C)C1 [Cycloheximide] | 24 ± 3.5% of untreated control | – | 0 | 37.3 ± 6.2% of untreated control | – |
| O=C(/C=C/c1cccnc1)NCCCCC1CCN(C(=O)c2ccccc2)CC1 [FK-866] | – | 32.7 ± 2.7% of untreated control | 92.7 ± 32.4 | – | C6/36 Viability (C6/36 cells; 10 µM): 48 ± 5.5% of untreated control |
| C=C[C@@]1(C)CC(=O)[C@]2(O)[C@@]3(C)[C@@H](O)CCC(C)(C)[C@@H]3[C@H](O)[C@H](OC(C)=O)[C@@]2(C)O1 [Forskolin] | – | 74.7 ± 3.7% of untreated control | 302 ± 18.3 | – | C6/36 Viability (C6/36 cells; 10 µM): 94 ± 12% of untreated control |
| COC1=C2C[C@@H](C)C[C@H](OC)[C@H](O)[C@@H](C)/C=C(\C)[C@H](OC(N)=O)[C@@H](OC)/C=C\C=C(/C)C(=O)NC(=CC1=O)C2=O [Geldanamycin] | 45 ± 5.8% of untreated control | 61.3 ± 5.7% of untreated control | 25.8 ± 14.5 | – | – |
| N[C@H]1C(O)O[C@H](CO)[C@@H](O)[C@@H]1O (stereo partly shown) [Glucosamine HCl] | 88 ± 5.2% of untreated control | 99.3 ± 1.9% of untreated control | 242 ± 45.8 | – | – |
| Cc1ccc(NC(=O)c2ccc(CN3CCN(C)CC3)cc2)cc1Nc1nccc(-c2cccnc2)n1 [Imatinib mesylate] | 19 ± 5.4% of untreated control | – | 5.3 ± 2.2 | – | – |

| Structure (SMILES) | C6/36 Viability (C6/36 cells; [1]) | Vero Viability (Vero cells; 10 µM) | activity at 10 µM (ZIKV SPH) [%] | Vero Viability (Vero cells; [2]) | also measured |
| --- | --- | --- | --- | --- | --- |
| CC(C)Cn1cnc2c(N)nc3ccccc3c21 [Imiquimod] | 37 ± 8.1% of untreated control | – | 72.5 ± 18.4 | 91.3 ± 1.2% of untreated control | – |
| O=c1cc(N2CCOCC2)oc2c(-c3ccccc3)cccc12 [LY294002] | 97 ± 17.2% of untreated control | – | 548 ± 221 | 56.0 ± 6% of untreated control | – |
| CC(C)C[C@@H](C=O)NC(=O)[C@H](CC(C)C)NC(=O)[C@H](CC(C)C)NC(=O)OCc1ccccc1 [MG132] (Cbz-Leu-Leu-Leu-aldehyde) | 31 ± 5.7% of untreated control | 10.7 ± 2.8% of untreated control | 9.5 ± 7.1 | – | – |
| CN(C)C(=N)N=C(N)N [Metformin·HCl] | 64 ± 10.3% of untreated control | 92.3 ± 4.2% of untreated control | – | – | – |
| Nc1cc(N2CCCCC2)nc(N)[n+]1[O-] [Minoxidil] | 72 ± 2.6% of untreated control | 96.3 ± 3.2% of untreated control | 146 ± 16.6 | – | – |
| O=C(Nc1ccc([N+](=O)[O-])cc1Cl)c1cc(Cl)ccc1O [Niclosamide] | 2 ± 0.3% of untreated control | 29.7 ± 3.8% of untreated control | 0.1 | – | – |
| COCCOC(=O)C1=C(C)NC(C)=C(C(=O)OC(C)C)C1c1cccc([N+](=O)[O-])c1 (stereo not shown) [Nimodipine] | 41 ± 8.4% of untreated control | 92.0 ± 1.5% of untreated control | 26.9 ± 13.6 | – | – |
| CCOC(=O)C1=C(C)NC(C)=C(C(=O)OC)C1c1cccc([N+](=O)[O-])c1 (stereo not shown) [Nitrendipine] | 62 ± 10.5% of untreated control | – | 220 ± 44.4 | 88.7 ± 1.9% of untreated control | – |
| Oc1cccc(-c2nc(N3CCOCC3)c3oc4ncccc4c3n2)c1 [PI-103] | – | 43.7 ± 6.4% of untreated control | 46.2 ± 13.3 | – | C6/36 Viability (C6/36 cells; 10 µM): 39 ± 8.9% of untreated control |
| O=c1[nH]c2ccccc2n1C1CCN(CCCC(c2ccc(F)cc2)c2ccc(F)cc2)CC1 [Pimozide] | 49 ± 3.6% of untreated control | 90.0 ± 5.7% of untreated control | 109 ± 22 | – | – |
| CC1=CC(=O)c2c(O)cccc2C1=O [Plumbagin] | – | 2.0 ± 0% of untreated control | 21.4 ± 17.5 | – | C6/36 Viability (C6/36 cells; 10 µM): 49 ± 1.5% of untreated control |
| Oc1ccc(/C=C/c2cc(O)cc(O)c2)cc1 [Resveratrol] | 81 ± 7.5% of untreated control | 87.3 ± 2.3% of untreated control | 155 ± 62 | – | – |
| C1COC(NC(C2CC2)C2CC2)=N1 [Rilmenidine] | – | 97.0 ± 2% of untreated control | 161 ± 58.1 | – | C6/36 Viability (C6/36 cells; 10 µM): 79 ± 8.3% of untreated control |
| c1ccc2c(-c3ccncc3)c[nH]c2c1 [Rockout] | – | 87.7 ± 3.8% of untreated control | 96.2 ± 44.2 | – | C6/36 Viability (C6/36 cells; 10 µM): 76 ± 5.2% of untreated control |
| COc1ccc(C2CNC(=O)C2)cc1OC1CCCC1 (stereo not shown) [Rolipram] | – | 91.0 ± 3.2% of untreated control | 215 ± 74.8 | – | C6/36 Viability (C6/36 cells; 10 µM): 127 ± 12.1% of untreated control |
| C=C(C)[C@H]1Cc2c(ccc3c2O[C@@H]2COc4cc(OC)c(OC)cc4[C@@H]2C3=O)O1 [Rotenone] | 17 ± 5.8% of untreated control | – | 0.1 ± 0.1 | 61.3 ± 7.7% of untreated control | – |
| CC(=O)c1c(O)c(C)c(O)c(Cc2c(O)c3c(c(C(=O)/C=C/c4ccccc4)c2O)OC(C)(C)C=C3)c1O [Rottlerin] | 40 ± 8.4% of untreated control | – | 30.3 ± 16.9 | 80.7 ± 8.5% of untreated control | – |
